Where two headings read alike, the source gives them in different places.
Assay: Effect of food on plasma pharmacokinetics after single oral dose of SF2a/b (Example 2)
Assay type: in vivo, human
Settings: both sexes, human, plasma, oral; for Tmax: read-out: tmax, Median
Procedure: The effect of food on the pharmacokinetics (PK) of Compound (a) was assessed in healthy participants after a single oral dose of SF2a/b, described in Example 1, administered at different dose levels in a randomized single dose, 2-period crossover study. The effect of food on the PK of Compound (a) was determined at 3 different dose levels (50 mg, 200 mg, and 800 mg) for a standardized breakfast; at one dose level (800 mg) for a high-fat, high-calorie breakfast; at two dose levels (200 mg and 800 mg) for a low-fat, low-calorie breakfast, as well as for a low-fat, high-calorie breakfast. 124 healthy adult participants (male and female, 18 to 55 years of age) were enrolled in this study. The volunteers were divided in six panels, which were organized as follows: • Panel […]: • Treatment D: A single 800-mg dose (4×200-mg tablets) of Compound (a) SF2b in fasted conditions. • Treatment E: A single 800-mg dose (4×200-mg tablets) of Compound (a) SF2b in fed conditions (standardized breakfast). • Treatments D and E (treatment sequence group 1 [n=8]: DE; treatment sequence group 2 [n=8]: ED). Panel 4, n=14: • Treatment F: A single 200-mg dose (1×200-mg tablet) of Compound (a) SF2b in fasted conditions. • Treatment G: A single 200-mg dose (1×200-mg tablet) of Compound (a) SF2b, in fed conditions (standardized breakfast). • Treatments F and G (treatment sequence group 1 [n=7]: FG; treatment sequence group 2 [n=7]: GF). Panel […]: • Treatment H: A single 50-mg dose (1×50-mg tablet) of Compound (a) SF2a in fasted conditions. • Treatment I: A single 50-mg dose (1×50-mg tablet) of Compound (a) SF2a in fed conditions (standardized breakfast). • Treatments H and I (treatment sequence group 1 [n=7]: HI; treatment sequence group 2 [n=7]: IH). Panel 6 (n=16): • Treatment J: single 800-mg dose (4×200-mg tablets) of Compound (a) administered as SF2b in fasted conditions. • Treatment K: single 800-mg dose (4×200-mg tablets) of Compound (a) administered as SF2b in fed conditions (high-fat, high-calorie breakfast). • Treatments J and K (treatment sequence group 1 [n=8]: JK; treatment sequence group 2 [n=8]: KJ). Panel 7 (n=32): • Treatment L: single 800-mg dose (4×200-mg tablets) of Compound (a) administered as SF2b in fed conditions (low-fat, low-calorie breakfast). • Treatment M: single 800-mg dose (4×200-mg tablets) of Compound (a) administered as SF2b in fed conditions (low-fat, high-calorie breakfast). • Treatment L (n=16) or Treatment M (n=16). Panel 8 (n=32): • Treatment N: single 200-mg dose (1×200-mg tablet) of Compound (a) administered as SF2b in fed conditions (low-fat, low-calorie breakfast). • Treatment O: single 200-mg dose (1×200-mg tablet) of Compound (a) administered as SF2b in fed conditions (low-fat, high-calorie breakfast). • Treatment N (n=16) or Treatment O (n=16). Tablets were administered orally, together with approximately 240 mL of non-carbonated water, in fasted or fed conditions. […] On day 1 of all treatments in each panel, the participants had fasted overnight for at least 10 hours before study drug intake. Intake of water was not allowed from 2 hours before and until 2 hours after study drug intake, except for the water used for study drug intake and breakfast. In case of intake in fed conditions, study drug was administered within 10 minutes after completing a standardized breakfast (Treatments E, G, and I), or a high-fat, high-calorie breakfast (Treatment K), a low-fat, low-calorie breakfast (Treatments L and N), or a low-fat, high-calorie breakfast (Treatments M and O). For treatments E, G, and I a standardized breakfast was served, consisting of (or its equivalent) 4 slices of bread, 2 slices of ham or cheese, butter, jelly, and 1 or 2 cups (up to 355 mL) of decaffeinated coffee or tea with milk and/or sugar, if desired (containing approximately: fat: 21 g, carbohydrates: 67 g, proteins: 19 g; total calories: 533 kcal). For treatment K in a high-fat, high-calorie breakfast was served. […]

With COc1cc(NC(C(=O)c2c[nH]c3ccc(OC(F)(F)F)cc23)c2ccc(Cl)cc2OC)cc(S(C)(=O)=O)c1 (stereo not drawn) [Compound (a)] the AUC(0-inf) (200 mg, 200 mg SF2b, fed, standardized breakfast (Tables 5E, 5G), read-out: AUC∞, Geometric LS Means Treatment G) was 103 µg·h/mL, the Cmax (200 mg, 200 mg SF2b, fed, standardized breakfast (Tables 5E, 5G), read-out: Cmax, Geometric LS Means Treatment G) was 961 ng/mL and the AUC(0-t) (200 mg, 200 mg SF2b, standardized breakfast, linear mixed effects model (Table 5B), read-out: AUClast, Geometric Mean Treatment G) was 102 µg·h/mL. The AUC(0-inf) (200 mg, 200 mg SF2b, standardized breakfast, linear mixed effects model (Table 5B), read-out: AUC∞, Geometric Mean Treatment G) was 104 µg·h/mL, the Cmax (200 mg, 200 mg SF2b, standardized breakfast, linear mixed effects model (Table 5B), read-out: Cmax, Geometric Mean Treatment G) was 984 ng/mL and the AUC(0-t) (200 mg, Treatment F: single 200 mg (SF2b), fasted, read-out: AUClast, Geo. Mean) was 61.1 µg·h/mL. For the same molecule, the AUC(0-t) (200 mg, Treatment F: single 200 mg (SF2b), fasted, read-out: AUClast, Mean) was 64.8 µg·h/mL, the AUC(0-t) (200 mg, Treatment F: single 200 mg (SF2b), fasted, read-out: AUClast, Median) was 59 µg·h/mL and the AUC(0-inf) (200 mg, Treatment F: single 200 mg (SF2b), fasted, read-out: AUC∞, Geo. Mean) was 59.6 µg·h/mL. It also gave an AUC(0-inf) (200 mg, Treatment F: single 200 mg (SF2b), fasted, read-out: AUC∞, Mean) of 62 µg·h/mL, an AUC(0-inf) (200 mg, Treatment F: single 200 mg (SF2b), fasted, read-out: AUC∞, Median) of 58.5 µg·h/mL and a Cmax (200 mg, Treatment F: single 200 mg (SF2b), fasted, read-out: Cmax, Geo. Mean) of 573 ng/mL. For the same molecule, the Cmax (200 mg, Treatment F: single 200 mg (SF2b), fasted, read-out: Cmax, Mean) was 602 ng/mL, the Cmax (200 mg, Treatment F: single 200 mg (SF2b), fasted, read-out: Cmax, Median) was 580 ng/mL and the half-life (200 mg, Treatment F: single 200 mg (SF2b), fasted, read-out: t1/2, term, Geo. Mean (converted)) was 188 h. It also gave a half-life (200 mg, Treatment F: single 200 mg (SF2b), fasted, read-out: t1/2, term, Mean (converted)) of 205 h, a half-life (200 mg, Treatment F: single 200 mg (SF2b), fasted, read-out: t1/2, term, Median (converted)) of 174 h and a Tmax (200 mg, Treatment F: single 200 mg (SF2b), fasted) of 7.5 h. The AUC(0-t) (200 mg, Treatment G: single 200 mg (SF2b), fed, standardized breakfast, read-out: AUClast, Geo. Mean) was 97.2 µg·h/mL, the AUC(0-t) (200 mg, Treatment G: single 200 mg (SF2b), fed, standardized breakfast, read-out: AUClast, Mean) was 100 µg·h/mL and the AUC(0-t) (200 mg, Treatment G: single 200 mg (SF2b), fed, standardized breakfast, read-out: AUClast, Median) was 89.5 µg·h/mL. For the same molecule, the AUC(0-inf) (200 mg, Treatment G: single 200 mg (SF2b), fed, standardized breakfast, read-out: AUC∞, Geo. Mean) was 102 µg·h/mL, the AUC(0-inf) (200 mg, Treatment G: single 200 mg (SF2b), fed, standardized breakfast, read-out: AUC∞, Mean) was 106 µg·h/mL and the AUC(0-inf) (200 mg, Treatment G: single 200 mg (SF2b), fed, standardized breakfast, read-out: AUC∞, Median) was 95.3 µg·h/mL. The Cmax (200 mg, Treatment G: single 200 mg (SF2b), fed, standardized breakfast, read-out: Cmax, Geo. Mean) was 961 ng/mL, the Cmax (200 mg, Treatment G: single 200 mg (SF2b), fed, standardized breakfast, read-out: Cmax, Mean) was 996 ng/mL and the Cmax (200 mg, Treatment G: single 200 mg (SF2b), fed, standardized breakfast, read-out: Cmax, Median) was 892 ng/mL. The half-life (200 mg, Treatment G: single 200 mg (SF2b), fed, standardized breakfast, read-out: t1/2, term, Geo. Mean (converted)) was 193 h, the half-life (200 mg, Treatment G: single 200 mg (SF2b), fed, standardized breakfast, read-out: t1/2, term, Mean (converted)) was 198 h and the half-life (200 mg, Treatment G: single 200 mg (SF2b), fed, standardized breakfast, read-out: t1/2, term, Median (converted)) was 208 h. The Tmax (200 mg, Treatment G: single 200 mg (SF2b), fed, standardized breakfast) was 8 h, the AUC(0-t) (800 mg, 800 mg SF2b, fasted, linear mixed effects model (Table 5A), read-out: AUClast, Geometric Mean Treatment D) was 140 µg·h/mL and the AUC(0-inf) (800 mg, 800 mg SF2b, fasted, linear mixed effects model (Table 5A), read-out: AUC∞, Geometric Mean Treatment D) was 148 µg·h/mL. For the same molecule, the Cmax (800 mg, 800 mg SF2b, fasted, linear mixed effects model (Table 5A), read-out: Cmax, Geometric Mean Treatment D) was 1220 ng/mL, the AUC(0-t) (800 mg, 800 mg SF2b, fasted, read-out: AUClast, Geometric LS Means Treatment J) was 107 µg·h/mL and the AUC(0-inf) (800 mg, 800 mg SF2b, fasted, read-out: AUC∞, Geometric LS Means Treatment J) was 110 µg·h/mL. It also gave a Cmax (800 mg, 800 mg SF2b, fasted, read-out: Cmax, Geometric LS Means Treatment J) of 991 ng/mL, an AUC(0-t) (800 mg, 800 mg SF2b, fed, high-fat, high-calorie breakfast, read-out: AUClast, Geometric LS Means Treatment K) of 421 µg·h/mL and an AUC(0-inf) (800 mg, 800 mg SF2b, fed, high-fat, high-calorie breakfast, read-out: AUC∞, Geometric LS Means Treatment K) of 422 µg·h/mL.
